The results in this text go back to patent US20250353891A1 (MEDIMMUNE LIMITED, priority 2022, published 2025).

As usually defined, the EC50 is the concentration at which the effect is half-maximal.

Starred links: 1 amine or outer side, 2 acyl side, 3 side chain; linkers in the order of their positions; H or OH if unused. Non-standard residues stand in square brackets, D forms with d. Residues, ends and D or L forms follow the SMILES beside them. Groups on a side chain read outwards from the residue. *: point of attachment. C20 diacid = O=C(O)CCCCCCCCCCCCCCCCCCC(=O)*; C18 diacid = O=C(O)CCCCCCCCCCCCCCCCC(=O)*; γGlu = O=C(O)[C@H](CCC(=O)[*:2])N[*:1]; αMeF = C[C@](N)(Cc1ccccc1)C(=O)O; AEEA = NCCOCCOCC(=O)O; Aib = CC(C)(N)C(=O)O

The target in assay [1] is human GLP-1 receptor (hGLP-1R) (Homo sapiens, UniProt P43220). As to the kind of experiment: cAMP production (HTRF) in CHO cells expressing hGLP-1R. It is filed as cell-based. Also on record: expressed in transfected cells. As to conditions: for % Relative Potency Ratio: % GLP-1R activity relative to GLP-1 / % GlucR activity relative to glucagon; for EC50: cAMP, CHO cells, 0.1% BSA, geometric mean, read-out: hGLP-1R EC50. The procedure, abridged: (§1)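 Cells were resuspended in assay buffer at batch-optimized density, typically 1×10^5 cells/mL for hGLP-1R and 2×10^5 cells/mL for hGCGR. After 30 min incubation at room temperature with compound, cAMP was measured by two-step HTRF. EC50 values came from 4-parameter logistic fits of % Delta F.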
Sequence of human GLP-1 receptor (hGLP-1R) (P43220 24-463): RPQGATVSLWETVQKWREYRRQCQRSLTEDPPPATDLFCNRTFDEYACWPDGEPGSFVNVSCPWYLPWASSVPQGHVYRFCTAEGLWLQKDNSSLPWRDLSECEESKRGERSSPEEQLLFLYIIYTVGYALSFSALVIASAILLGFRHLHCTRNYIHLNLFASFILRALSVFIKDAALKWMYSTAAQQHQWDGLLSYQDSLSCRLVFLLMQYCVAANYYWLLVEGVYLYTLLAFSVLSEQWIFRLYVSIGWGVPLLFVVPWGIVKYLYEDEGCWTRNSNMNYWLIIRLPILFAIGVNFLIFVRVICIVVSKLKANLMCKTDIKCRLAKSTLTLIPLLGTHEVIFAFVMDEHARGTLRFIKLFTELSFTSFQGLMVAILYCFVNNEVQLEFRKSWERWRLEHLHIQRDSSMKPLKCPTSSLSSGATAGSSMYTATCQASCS
Background: cAMP levels reflect the balance of adenylyl cyclase and phosphodiesterase activity.

Assay [2] concerns the target human glucagon receptor (hGCGR) (Homo sapiens, UniProt P47871). As to the kind of experiment: cAMP production (HTRF) in CHO cells expressing hGCGR. It is filed as cell-based. Also on record: expressed in transfected cells. As to conditions: cAMP, CHO cells, 0.1% BSA, geometric mean; read-out: hGluc-R EC50. The procedure, abridged:
as §1

Sequence of human glucagon receptor (hGCGR) (P47871 26-477): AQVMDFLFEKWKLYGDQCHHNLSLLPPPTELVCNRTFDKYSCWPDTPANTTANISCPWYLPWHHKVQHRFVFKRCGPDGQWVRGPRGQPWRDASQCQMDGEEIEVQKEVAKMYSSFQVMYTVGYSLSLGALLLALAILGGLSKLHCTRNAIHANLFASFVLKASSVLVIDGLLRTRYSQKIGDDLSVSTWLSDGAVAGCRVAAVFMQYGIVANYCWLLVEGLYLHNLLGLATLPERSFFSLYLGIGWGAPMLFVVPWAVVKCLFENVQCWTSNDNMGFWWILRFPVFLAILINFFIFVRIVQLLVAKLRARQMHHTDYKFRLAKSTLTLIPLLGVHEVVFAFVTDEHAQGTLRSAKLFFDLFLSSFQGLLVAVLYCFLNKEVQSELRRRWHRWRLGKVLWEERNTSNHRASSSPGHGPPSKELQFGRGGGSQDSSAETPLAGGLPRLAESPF

Regarding `CC[C@H](C)[C@H](NC(=O)C(C)(C)NC(=O)[C@H](CCCCNC(=O)COCCOCCNC(=O)COCCOCCNC(=O)CC[C@H](NC(=O)CCCCCCCCCCCCCCCCCCC(=O)O)C(=O)O)NC(=O)[C@@H](NC(=O)[C@H](Cc1ccccc1)NC(=O)[C@H](CC(=O)O)NC(=O)[C@H](CCC(N)=O)NC(=O)[C@H](C)NC(=O)[C@H](C)NC(=O)[C@H](CCCNC(=N)N)NC(=O)[C@H](CO)NC(=O)[C@H](CC(=O)O)NC(=O)[C@H](CC(C)C)NC(=O)[C@](C)(Cc1ccccc1)NC(=O)[C@H](CCCCN)NC(=O)[C@H](CO)NC(=O)[C@@H](NC(=O)[C@H](CC(=O)O)NC(=O)[C@H](CO)NC(=O)[C@@H](NC(=O)[C@](C)(Cc1ccccc1)NC(=O)[C@H](CO)NC(=O)CNC(=O)[C@H](Cc1c[nH]cn1)NC(=O)C(C)(C)NC(=O)[C@@H](N)Cc1c[nH]cn1)[C@@H](C)O)C(C)C)C(C)C)C(=O)N[C@@H](C)C(=O)N[C@@H](CC(N)=O)C(=O)N[C@H](C(N)=O)[C@@H](C)O` [Peptide 369] (H-H[Aib]HGS[αMeF]TSDVSK[αMeF]LDSRAAQDFVK([AEEA-AEEA-γGlu-C20 diacid])[Aib]IANT-NH2; N-terminus assumed), in assay [1], the “% Relative Potency Ratio” value is 3.8 and the EC50 is 0.104 nM. In assay [2], the EC50 was 0.202 nM.
Taken in the same sequence, the figures for `CC[C@H](C)[C@H](NC(=O)[C@H](Cc1c[nH]c2ccccc12)NC(=O)[C@H](CCCCNC(=O)COCCOCCNC(=O)COCCOCCNC(=O)CC[C@H](NC(=O)CCCCCCCCCCCCCCCCC(=O)O)C(=O)O)NC(=O)[C@@H](NC(=O)[C@](C)(Cc1ccccc1)NC(=O)[C@H](CC(=O)O)NC(=O)[C@H](CCC(N)=O)NC(=O)[C@H](C)NC(=O)[C@H](C)NC(=O)[C@H](CCC(N)=O)NC(=O)[C@H](CO)NC(=O)[C@H](CC(=O)O)NC(=O)[C@H](CC(C)C)NC(=O)[C@](C)(Cc1ccccc1)NC(=O)[C@H](CCCCN)NC(=O)[C@H](CO)NC(=O)[C@@H](NC(=O)[C@H](CC(=O)O)NC(=O)[C@H](CO)NC(=O)[C@@H](NC(=O)[C@](C)(Cc1ccccc1)NC(=O)[C@H](CO)NC(=O)CNC(=O)[C@H](Cc1c[nH]cn1)NC(=O)C(C)(C)NC(=O)[C@@H](N)Cc1c[nH]cn1)[C@@H](C)O)C(C)C)C(C)C)C(=O)N[C@@H](C)C(=O)N[C@@H](CC(N)=O)C(=O)N[C@H](C(N)=O)[C@@H](C)O` [Peptide 370] (H-H[Aib]HGS[αMeF]TSDVSK[αMeF]LDSQAAQD[αMeF]VK([AEEA-AEEA-γGlu-C18 diacid])WIANT-NH2; N-terminus assumed) were 1.1, 0.323 nM and 0.182 nM.
Taken in the same sequence, the figures for `CC[C@H](C)[C@H](NC(=O)[C@H](Cc1c[nH]c2ccccc12)NC(=O)[C@H](CCCCNC(=O)COCCOCCNC(=O)COCCOCCNC(=O)CC[C@H](NC(=O)CC[C@H](NC(=O)CCCCCCCCCCCCCCCCC(=O)O)C(=O)O)C(=O)O)NC(=O)[C@@H](NC(=O)[C@](C)(Cc1ccccc1)NC(=O)[C@H](CC(=O)O)NC(=O)[C@H](CCC(N)=O)NC(=O)[C@H](C)NC(=O)[C@H](C)NC(=O)[C@H](CCCNC(=N)N)NC(=O)[C@H](CO)NC(=O)[C@H](CC(=O)O)NC(=O)[C@H](CC(C)C)NC(=O)[C@](C)(Cc1ccccc1)NC(=O)[C@H](CCCCN)NC(=O)[C@H](CO)NC(=O)[C@@H](NC(=O)[C@H](CC(=O)O)NC(=O)[C@H](CO)NC(=O)[C@@H](NC(=O)[C@](C)(Cc1ccccc1)NC(=O)[C@H](CO)NC(=O)CNC(=O)[C@H](Cc1c[nH]cn1)NC(=O)C(C)(C)NC(=O)[C@@H](N)Cc1c[nH]cn1)[C@@H](C)O)C(C)C)C(C)C)C(=O)N[C@@H](C)C(=O)N[C@@H](CC(N)=O)C(=O)N[C@H](C(N)=O)[C@@H](C)O` [Peptide 371] (H-H[Aib]HGS[αMeF]TSDVSK[αMeF]LDSRAAQD[αMeF]VK([AEEA-AEEA-γGlu-γGlu-C18 diacid])WIANT-NH2; N-terminus assumed) were 0.9, 0.191 nM and 0.0872 nM.
For `CC[C@H](C)[C@H](NC(=O)C(C)(C)NC(=O)[C@H](CCCCNC(=O)COCCOCCNC(=O)COCCOCCNC(=O)CC[C@H](NC(=O)CC[C@H](NC(=O)CCCCCCCCCCCCCCCCC(=O)O)C(=O)O)C(=O)O)NC(=O)[C@@H](NC(=O)[C@](C)(Cc1ccccc1)NC(=O)[C@H](CC(=O)O)NC(=O)[C@H](CCC(N)=O)NC(=O)[C@H](C)NC(=O)[C@H](C)NC(=O)[C@H](CCCNC(=N)N)NC(=O)[C@H](CO)NC(=O)[C@H](CC(=O)O)NC(=O)[C@H](CC(C)C)NC(=O)[C@](C)(Cc1ccccc1)NC(=O)[C@H](CCCCN)NC(=O)[C@H](CO)NC(=O)[C@@H](NC(=O)[C@H](CC(=O)O)NC(=O)[C@H](CO)NC(=O)[C@@H](NC(=O)[C@](C)(Cc1ccccc1)NC(=O)[C@H](CO)NC(=O)CNC(=O)[C@H](Cc1c[nH]cn1)NC(=O)C(C)(C)NC(=O)[C@@H](N)Cc1c[nH]cn1)[C@@H](C)O)C(C)C)C(C)C)C(=O)N[C@@H](C)C(=O)N[C@@H](CC(N)=O)C(=O)N[C@H](C(=O)NCC(=O)NCC(N)=O)[C@@H](C)O` [Peptide 373] (H-H[Aib]HGS[αMeF]TSDVSK[αMeF]LDSRAAQD[αMeF]VK([AEEA-AEEA-γGlu-γGlu-C18 diacid])[Aib]IANTGG-NH2; N-terminus assumed), in that order: 7.2, 0.0667 nM and 0.242 nM.
Take `CC[C@H](C)[C@H](NC(=O)[C@H](Cc1c[nH]c2ccccc12)NC(=O)[C@H](CCCCNC(=O)COCCOCCNC(=O)COCCOCCNC(=O)CC[C@H](NC(=O)CC[C@H](NC(=O)CCCCCCCCCCCCCCCCCCC(=O)O)C(=O)O)C(=O)O)NC(=O)[C@@H](NC(=O)[C@](C)(Cc1ccccc1)NC(=O)[C@H](CC(=O)O)NC(=O)[C@H](CCC(N)=O)NC(=O)[C@H](C)NC(=O)[C@H](C)NC(=O)[C@H](CCCNC(=N)N)NC(=O)[C@H](CO)NC(=O)[C@H](CC(=O)O)NC(=O)[C@H](CC(C)C)NC(=O)[C@](C)(Cc1ccccc1)NC(=O)[C@H](CCCCN)NC(=O)[C@H](CO)NC(=O)[C@@H](NC(=O)[C@H](CC(=O)O)NC(=O)[C@H](CO)NC(=O)[C@@H](NC(=O)[C@](C)(Cc1ccccc1)NC(=O)[C@H](CO)NC(=O)CNC(=O)[C@H](Cc1c[nH]cn1)NC(=O)C(C)(C)NC(=O)[C@@H](N)Cc1c[nH]cn1)[C@@H](C)O)C(C)C)C(C)C)C(=O)N[C@@H](C)C(=O)N[C@@H](CC(N)=O)C(=O)N[C@H](C(N)=O)[C@@H](C)O` [Peptide 374] (H-H[Aib]HGS[αMeF]TSDVSK[αMeF]LDSRAAQD[αMeF]VK([AEEA-AEEA-γGlu-γGlu-C20 diacid])WIANT-NH2; N-terminus assumed): in assay [1], the “% Relative Potency Ratio” value amounted to 1.2 and the EC50 stood at 0.434 nM. In assay [2], the EC50 came out at 0.26 nM.
For `CC[C@H](C)[C@H](NC(=O)[C@H](Cc1c[nH]c2ccccc12)NC(=O)[C@H](CCCCNC(=O)COCCOCCNC(=O)COCCOCCNC(=O)CC[C@H](NC(=O)CC[C@H](NC(=O)CCCCCCCCCCCCCCCCCCC(=O)O)C(=O)O)C(=O)O)NC(=O)[C@@H](NC(=O)[C@H](Cc1ccccc1)NC(=O)[C@H](CC(=O)O)NC(=O)[C@H](CCC(N)=O)NC(=O)[C@H](C)NC(=O)[C@H](C)NC(=O)[C@H](CCCNC(=N)N)NC(=O)[C@H](CO)NC(=O)[C@H](CC(=O)O)NC(=O)[C@H](CC(C)C)NC(=O)[C@](C)(Cc1ccccc1)NC(=O)[C@H](CCCCN)NC(=O)[C@H](CO)NC(=O)[C@@H](NC(=O)[C@H](CC(=O)O)NC(=O)[C@H](CO)NC(=O)[C@@H](NC(=O)[C@](C)(Cc1ccccc1)NC(=O)[C@H](CO)NC(=O)CNC(=O)[C@H](Cc1c[nH]cn1)NC(=O)C(C)(C)NC(=O)[C@@H](N)Cc1c[nH]cn1)[C@@H](C)O)C(C)C)C(C)C)C(=O)N[C@@H](C)C(=O)N[C@@H](CC(N)=O)C(=O)N[C@H](C(N)=O)[C@@H](C)O` [Peptide 377] (H-H[Aib]HGS[αMeF]TSDVSK[αMeF]LDSRAAQDFVK([AEEA-AEEA-γGlu-γGlu-C20 diacid])WIANT-NH2; N-terminus assumed), in assay [1], the “% Relative Potency Ratio” value was 2.5 and the EC50 came out at 0.15 nM. The EC50 in assay [2] worked out at 0.19 nM.
Take `CC[C@H](C)[C@H](NC(=O)[C@H](CO)NC(=O)[C@H](CCCCNC(=O)COCCOCCNC(=O)COCCOCCNC(=O)CC[C@H](NC(=O)CC[C@H](NC(=O)CCCCCCCCCCCCCCCCC(=O)O)C(=O)O)C(=O)O)NC(=O)[C@@H](NC(=O)[C@](C)(Cc1ccccc1)NC(=O)[C@H](CC(=O)O)NC(=O)[C@H](CCC(N)=O)NC(=O)[C@H](C)NC(=O)[C@H](C)NC(=O)[C@H](CCCNC(=N)N)NC(=O)[C@H](CO)NC(=O)[C@H](CC(=O)O)NC(=O)[C@H](CC(C)C)NC(=O)[C@](C)(Cc1ccccc1)NC(=O)[C@H](CCCCN)NC(=O)[C@H](CO)NC(=O)[C@@H](NC(=O)[C@H](CC(=O)O)NC(=O)[C@H](CO)NC(=O)[C@@H](NC(=O)[C@](C)(Cc1ccccc1)NC(=O)[C@H](CO)NC(=O)CNC(=O)[C@H](Cc1c[nH]cn1)NC(=O)C(C)(C)NC(=O)[C@@H](N)Cc1c[nH]cn1)[C@@H](C)O)C(C)C)C(C)C)C(=O)N[C@@H](C)C(=O)N[C@@H](CC(N)=O)C(=O)N[C@H](C(N)=O)[C@@H](C)O` [Peptide 378] (H-H[Aib]HGS[αMeF]TSDVSK[αMeF]LDSRAAQD[αMeF]VK([AEEA-AEEA-γGlu-γGlu-C18 diacid])SIANT-NH2; N-terminus assumed): the “% Relative Potency Ratio” value in assay [1] came to 2.0. Moreover, the EC50 in assay [1] came to 0.159 nM; in assay [2], 0.158 nM.
